# The NIST ThermoML archive (doi:10.1016/j.jct.2013.11.026)
# Numbers after ± are expanded uncertainties.
# Conditions: 298.15 K, 101.8 kPa, Liquid; for viscosity: Falling or rolling sphere viscometry; for mass density: Vibrating tube method
SMILES,viscosity,mass density
"CC1=CCC(C(C)C)=CC1 [1-methyl-4-(1-methylethyl)-1,4-cyclohexadiene]",1.144 ± 0.031 mPa·s,844.9 ± 1.9 kg/m3
"C=CC(C)(O)CCC=C(C)C (stereo unspecified) [3,7-dimethyl-1,6-octadien-3-ol]",4.349 ± 0.092 mPa·s,857.28 ± 1 kg/m3
"CC(C)=CCCC(C)=CC=O [3,7-dimethyl-2,6-octadienal (cis+trans)]",2.019 ± 0.043 mPa·s,883.42 ± 1 kg/m3
"C=C1CC[C@H]2C[C@@H]1C2(C)C [(1S,5S)-6,6-dimethyl-2-methylenebicyclo[3.1.1]heptane]",1.616 ± 0.034 mPa·s,866.93 ± 1 kg/m3
C=C(C)[C@H]1CC=C(C)CC1 [(R)-1-methyl-4-(1-methylethenyl)cyclohexene],0.8599 ± 0.022 mPa·s,838.59 ± 1.6 kg/m3
CCO [ethanol],1.125 ± 0.024 mPa·s,785.07 ± 1 kg/m3

# Other lines, results leading:
viscosity,mass density,SMILES
2.456 ± 0.052 mPa·s,958.79 ± 1 kg/m3,C=C(C)[C@@H]1CC=C(C)C(=O)C1 [l-carvone]
2.291 ± 0.049 mPa·s,898.64 ± 1 kg/m3,C=CC(C)(CCC=C(C)C)OC(C)=O (stereo unspecified) [linalool acetate]
